Holding throughout (assay): Ray2010 Assay 74
Assay [1] concerns the target Sodium-dependent dopamine transporter (Homo sapiens, UniProt Q01959). From the text:
(§1) Table S2 shows raw Ki data for the current study combined with data collected from the literature for the ten additional compounds.

Assay [2] addresses Histamine H2 receptor (Homo sapiens, UniProt P25021).
Source text: as §1

Assay [3] deals with D(1B) dopamine receptor (Homo sapiens, UniProt P21918).
Source text: as §1

In assay [4] the target is Beta-1 adrenergic receptor (Homo sapiens, UniProt P08588).
Source text: as §1

In assay [5] the target is T1, Muscarinic acetylcholine receptor M5 (Homo sapiens, UniProt P08912).
T1 sequence (P08912 whole entry): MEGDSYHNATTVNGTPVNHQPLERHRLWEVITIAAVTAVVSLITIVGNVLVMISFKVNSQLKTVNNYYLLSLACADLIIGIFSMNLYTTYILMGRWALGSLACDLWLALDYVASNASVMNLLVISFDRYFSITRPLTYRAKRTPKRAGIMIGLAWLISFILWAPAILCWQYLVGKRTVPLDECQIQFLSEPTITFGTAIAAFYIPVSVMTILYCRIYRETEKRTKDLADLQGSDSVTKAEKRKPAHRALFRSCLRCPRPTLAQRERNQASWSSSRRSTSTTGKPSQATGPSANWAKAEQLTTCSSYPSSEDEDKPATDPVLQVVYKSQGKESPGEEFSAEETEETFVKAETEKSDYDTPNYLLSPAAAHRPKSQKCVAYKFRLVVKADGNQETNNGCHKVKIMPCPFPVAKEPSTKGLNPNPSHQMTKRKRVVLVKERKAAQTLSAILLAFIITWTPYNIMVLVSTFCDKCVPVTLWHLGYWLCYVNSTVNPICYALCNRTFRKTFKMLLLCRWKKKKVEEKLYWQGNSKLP
Source text: as §1

The target of assay [6] is T2, Alpha-1A adrenergic receptor (Homo sapiens, UniProt P35348).
T2 sequence (P35348 whole entry): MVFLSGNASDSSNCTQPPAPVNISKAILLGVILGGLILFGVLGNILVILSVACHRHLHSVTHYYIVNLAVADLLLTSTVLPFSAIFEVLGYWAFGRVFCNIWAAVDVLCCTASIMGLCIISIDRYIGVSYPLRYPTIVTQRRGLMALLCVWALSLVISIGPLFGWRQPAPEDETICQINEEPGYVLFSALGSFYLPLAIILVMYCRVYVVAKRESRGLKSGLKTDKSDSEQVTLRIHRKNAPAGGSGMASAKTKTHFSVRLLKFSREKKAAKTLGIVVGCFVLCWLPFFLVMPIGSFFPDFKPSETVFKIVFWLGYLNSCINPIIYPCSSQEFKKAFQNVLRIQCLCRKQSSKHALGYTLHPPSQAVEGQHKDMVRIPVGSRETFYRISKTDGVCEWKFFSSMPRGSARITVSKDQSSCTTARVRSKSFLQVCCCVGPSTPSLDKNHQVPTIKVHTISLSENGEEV
Source text: as §1

Assay [7] has as its target T3, Alpha-2A adrenergic receptor (Homo sapiens, UniProt P08913).
T3 sequence (P08913 whole entry): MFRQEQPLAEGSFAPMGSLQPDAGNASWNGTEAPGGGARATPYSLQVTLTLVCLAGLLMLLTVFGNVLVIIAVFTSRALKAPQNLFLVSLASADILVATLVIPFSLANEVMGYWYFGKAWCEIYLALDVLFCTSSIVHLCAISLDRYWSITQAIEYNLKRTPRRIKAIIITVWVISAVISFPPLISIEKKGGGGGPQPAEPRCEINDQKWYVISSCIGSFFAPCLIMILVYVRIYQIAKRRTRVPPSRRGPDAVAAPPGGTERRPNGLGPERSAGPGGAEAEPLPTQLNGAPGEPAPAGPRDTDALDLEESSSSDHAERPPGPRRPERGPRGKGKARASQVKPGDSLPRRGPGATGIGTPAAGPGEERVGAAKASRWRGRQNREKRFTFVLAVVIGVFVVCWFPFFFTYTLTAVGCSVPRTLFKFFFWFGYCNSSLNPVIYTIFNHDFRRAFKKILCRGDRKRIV
Source text: as §1

The target of assay [8] is D(2) dopamine receptor (Homo sapiens, UniProt P14416).
Source text: as §1

For assay [9], the target named is Mu-type opioid receptor (Homo sapiens, UniProt P35372).
Source text: as §1

In assay [10] the target is Glutamate receptor ionotropic, NMDA 2A (Homo sapiens, UniProt Q12879).
Source text: as §1

The target of assay [11] is T4, 5-hydroxytryptamine receptor 3A (Homo sapiens, UniProt P46098).
T4 sequence (P46098 whole entry): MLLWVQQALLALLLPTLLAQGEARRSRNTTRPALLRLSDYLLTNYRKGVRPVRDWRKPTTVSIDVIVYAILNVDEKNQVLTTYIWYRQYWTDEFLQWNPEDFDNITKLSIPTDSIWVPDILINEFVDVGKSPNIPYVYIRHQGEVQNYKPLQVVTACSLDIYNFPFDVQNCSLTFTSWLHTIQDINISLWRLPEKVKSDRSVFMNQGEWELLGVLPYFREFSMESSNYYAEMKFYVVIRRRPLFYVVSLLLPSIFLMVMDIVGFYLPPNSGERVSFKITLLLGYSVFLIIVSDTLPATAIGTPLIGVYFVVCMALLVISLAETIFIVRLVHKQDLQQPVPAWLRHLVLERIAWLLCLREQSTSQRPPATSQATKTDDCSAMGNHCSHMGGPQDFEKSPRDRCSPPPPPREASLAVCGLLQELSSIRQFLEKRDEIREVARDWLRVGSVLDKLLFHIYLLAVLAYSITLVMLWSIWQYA
Source text: as §1

In assay [12] the target is Delta-type opioid receptor (Homo sapiens, UniProt P41143).
Source text: as §1

The target of assay [13] is Histamine H1 receptor (Homo sapiens, UniProt P35367).
Source text: as §1

The target in assay [14] is 5-hydroxytryptamine receptor 1B (Homo sapiens, UniProt P28222).
Source text: as §1

Assay [15] concerns the target 5-hydroxytryptamine receptor 5A (Homo sapiens, UniProt P47898).
Source text: as §1

The target in assay [16] is 5-hydroxytryptamine receptor 6 (Homo sapiens, UniProt P50406).
Source text: as §1

In assay [17] the target is 5-hydroxytryptamine receptor 2B (Homo sapiens, UniProt P41595).
Source text: as §1

The target in assay [18] is 5-hydroxytryptamine receptor 1D (Homo sapiens, UniProt P28221).
Source text: as §1

In assay [19] the target is Histamine H4 receptor (Homo sapiens, UniProt Q9H3N8).
Source text: as §1

pKi: −log10 of the molar value.

Chain of 5-hydroxytryptamine receptor 2B (P41595 whole entry): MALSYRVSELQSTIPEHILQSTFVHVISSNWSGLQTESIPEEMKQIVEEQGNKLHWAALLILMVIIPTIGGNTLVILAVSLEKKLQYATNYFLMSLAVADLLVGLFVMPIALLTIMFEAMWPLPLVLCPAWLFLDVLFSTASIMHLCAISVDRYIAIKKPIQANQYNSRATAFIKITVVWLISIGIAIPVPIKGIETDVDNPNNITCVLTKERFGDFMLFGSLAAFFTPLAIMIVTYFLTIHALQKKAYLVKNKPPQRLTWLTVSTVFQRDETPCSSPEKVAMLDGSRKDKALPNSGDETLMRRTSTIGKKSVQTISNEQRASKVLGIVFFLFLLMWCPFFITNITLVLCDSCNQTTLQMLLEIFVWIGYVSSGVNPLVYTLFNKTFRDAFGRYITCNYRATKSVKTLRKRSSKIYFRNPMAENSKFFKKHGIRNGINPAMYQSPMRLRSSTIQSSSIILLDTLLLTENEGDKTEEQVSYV
Chain of Glutamate receptor ionotropic, NMDA 2A (Q12879 whole entry): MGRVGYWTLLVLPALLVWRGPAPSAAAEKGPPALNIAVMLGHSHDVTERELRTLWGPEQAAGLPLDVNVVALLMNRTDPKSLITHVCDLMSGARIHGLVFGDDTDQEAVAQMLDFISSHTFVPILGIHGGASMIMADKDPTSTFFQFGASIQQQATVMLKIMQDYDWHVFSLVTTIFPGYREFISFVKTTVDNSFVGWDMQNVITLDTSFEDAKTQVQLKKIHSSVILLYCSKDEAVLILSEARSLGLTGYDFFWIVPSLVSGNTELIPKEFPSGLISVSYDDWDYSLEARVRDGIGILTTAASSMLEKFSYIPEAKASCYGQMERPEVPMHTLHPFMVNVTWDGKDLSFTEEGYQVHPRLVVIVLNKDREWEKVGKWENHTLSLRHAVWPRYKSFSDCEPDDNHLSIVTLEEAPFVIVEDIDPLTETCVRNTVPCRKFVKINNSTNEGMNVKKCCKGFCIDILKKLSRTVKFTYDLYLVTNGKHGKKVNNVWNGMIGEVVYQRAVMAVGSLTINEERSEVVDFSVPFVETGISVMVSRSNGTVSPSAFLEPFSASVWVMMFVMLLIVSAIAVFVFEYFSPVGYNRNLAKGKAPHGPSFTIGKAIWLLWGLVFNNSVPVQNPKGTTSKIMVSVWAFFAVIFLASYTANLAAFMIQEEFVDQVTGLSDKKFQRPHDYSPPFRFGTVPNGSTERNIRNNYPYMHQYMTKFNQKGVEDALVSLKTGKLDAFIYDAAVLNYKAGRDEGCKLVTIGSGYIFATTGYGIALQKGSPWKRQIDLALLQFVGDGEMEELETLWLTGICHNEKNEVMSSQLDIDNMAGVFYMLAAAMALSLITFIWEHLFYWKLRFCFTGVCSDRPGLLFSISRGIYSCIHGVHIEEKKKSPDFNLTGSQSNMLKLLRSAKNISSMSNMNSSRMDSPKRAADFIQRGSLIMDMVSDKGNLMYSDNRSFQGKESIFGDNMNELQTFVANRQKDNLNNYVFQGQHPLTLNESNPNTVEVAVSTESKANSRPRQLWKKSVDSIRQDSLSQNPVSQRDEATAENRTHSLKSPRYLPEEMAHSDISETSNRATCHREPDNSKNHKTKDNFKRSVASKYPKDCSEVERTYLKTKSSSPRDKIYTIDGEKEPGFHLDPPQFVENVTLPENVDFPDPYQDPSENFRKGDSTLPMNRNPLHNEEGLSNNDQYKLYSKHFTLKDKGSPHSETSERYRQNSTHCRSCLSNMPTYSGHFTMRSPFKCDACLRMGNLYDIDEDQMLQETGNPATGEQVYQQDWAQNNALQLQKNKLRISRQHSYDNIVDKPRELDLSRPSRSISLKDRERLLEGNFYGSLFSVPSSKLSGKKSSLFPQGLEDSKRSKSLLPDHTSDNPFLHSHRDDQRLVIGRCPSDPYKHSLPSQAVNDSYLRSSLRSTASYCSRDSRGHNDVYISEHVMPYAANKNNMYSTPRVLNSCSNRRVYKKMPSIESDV
Chain of 5-hydroxytryptamine receptor 1D (P28221 whole entry): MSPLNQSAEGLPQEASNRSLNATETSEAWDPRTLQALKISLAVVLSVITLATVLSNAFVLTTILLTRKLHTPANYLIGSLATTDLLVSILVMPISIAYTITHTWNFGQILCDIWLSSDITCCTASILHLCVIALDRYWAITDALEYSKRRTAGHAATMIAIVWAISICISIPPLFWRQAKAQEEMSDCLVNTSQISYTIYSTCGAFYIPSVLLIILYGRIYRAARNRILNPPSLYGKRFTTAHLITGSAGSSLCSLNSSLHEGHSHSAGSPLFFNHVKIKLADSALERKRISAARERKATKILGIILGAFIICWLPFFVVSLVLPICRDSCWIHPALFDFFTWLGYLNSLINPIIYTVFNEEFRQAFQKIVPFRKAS
Chain of 5-hydroxytryptamine receptor 5A (P47898 whole entry): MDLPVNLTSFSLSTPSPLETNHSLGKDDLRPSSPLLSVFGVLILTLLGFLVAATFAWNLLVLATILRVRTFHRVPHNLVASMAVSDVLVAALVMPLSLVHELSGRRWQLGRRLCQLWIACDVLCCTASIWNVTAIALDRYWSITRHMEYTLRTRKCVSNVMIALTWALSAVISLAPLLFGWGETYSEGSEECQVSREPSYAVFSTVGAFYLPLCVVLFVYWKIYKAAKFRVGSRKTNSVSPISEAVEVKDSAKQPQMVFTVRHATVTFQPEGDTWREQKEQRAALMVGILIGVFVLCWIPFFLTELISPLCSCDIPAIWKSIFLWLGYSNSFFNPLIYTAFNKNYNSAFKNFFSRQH
Chain of Mu-type opioid receptor (P35372 whole entry): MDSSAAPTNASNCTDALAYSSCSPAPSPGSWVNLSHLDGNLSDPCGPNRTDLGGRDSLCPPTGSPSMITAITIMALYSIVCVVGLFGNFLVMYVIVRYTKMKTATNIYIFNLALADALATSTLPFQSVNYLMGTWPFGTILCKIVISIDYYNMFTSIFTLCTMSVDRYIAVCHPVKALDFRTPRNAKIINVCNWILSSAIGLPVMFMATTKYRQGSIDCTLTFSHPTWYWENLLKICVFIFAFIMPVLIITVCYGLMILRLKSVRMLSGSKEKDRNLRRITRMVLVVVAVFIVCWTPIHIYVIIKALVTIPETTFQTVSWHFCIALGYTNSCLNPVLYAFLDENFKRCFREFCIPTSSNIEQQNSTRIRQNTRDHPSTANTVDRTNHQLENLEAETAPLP
Chain of 5-hydroxytryptamine receptor 1B (P28222 whole entry): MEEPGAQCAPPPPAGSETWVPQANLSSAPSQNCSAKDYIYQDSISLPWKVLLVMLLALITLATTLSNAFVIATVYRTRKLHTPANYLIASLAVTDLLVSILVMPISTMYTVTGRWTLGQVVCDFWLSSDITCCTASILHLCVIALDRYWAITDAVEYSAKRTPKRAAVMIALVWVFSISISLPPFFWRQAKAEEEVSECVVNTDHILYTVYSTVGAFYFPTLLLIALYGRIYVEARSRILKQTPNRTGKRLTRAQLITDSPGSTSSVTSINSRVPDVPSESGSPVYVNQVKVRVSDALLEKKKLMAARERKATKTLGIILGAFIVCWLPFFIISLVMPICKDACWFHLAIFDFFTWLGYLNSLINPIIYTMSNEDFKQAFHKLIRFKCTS
Chain of Histamine H2 receptor (P25021 whole entry): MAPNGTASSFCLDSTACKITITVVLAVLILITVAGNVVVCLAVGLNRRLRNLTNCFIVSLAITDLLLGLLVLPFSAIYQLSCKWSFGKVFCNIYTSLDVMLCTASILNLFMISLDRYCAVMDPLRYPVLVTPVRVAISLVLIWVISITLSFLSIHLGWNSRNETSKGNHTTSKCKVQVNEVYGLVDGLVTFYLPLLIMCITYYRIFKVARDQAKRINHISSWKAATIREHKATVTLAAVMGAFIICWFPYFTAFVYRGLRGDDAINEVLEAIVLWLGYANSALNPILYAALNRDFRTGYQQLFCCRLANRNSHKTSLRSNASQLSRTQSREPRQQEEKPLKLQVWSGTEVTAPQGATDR
Chain of Histamine H4 receptor (Q9H3N8 whole entry): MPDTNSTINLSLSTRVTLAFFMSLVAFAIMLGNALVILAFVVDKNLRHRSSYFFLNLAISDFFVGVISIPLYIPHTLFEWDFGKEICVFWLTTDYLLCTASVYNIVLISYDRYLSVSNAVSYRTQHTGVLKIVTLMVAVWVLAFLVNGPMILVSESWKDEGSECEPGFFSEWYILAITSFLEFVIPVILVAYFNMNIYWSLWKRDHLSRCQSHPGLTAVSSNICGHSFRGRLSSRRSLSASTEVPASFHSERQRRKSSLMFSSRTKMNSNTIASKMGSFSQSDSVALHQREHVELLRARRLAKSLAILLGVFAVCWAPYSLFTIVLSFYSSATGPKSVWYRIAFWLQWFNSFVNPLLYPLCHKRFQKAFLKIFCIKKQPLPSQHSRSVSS
Chain of D(2) dopamine receptor (P14416 whole entry): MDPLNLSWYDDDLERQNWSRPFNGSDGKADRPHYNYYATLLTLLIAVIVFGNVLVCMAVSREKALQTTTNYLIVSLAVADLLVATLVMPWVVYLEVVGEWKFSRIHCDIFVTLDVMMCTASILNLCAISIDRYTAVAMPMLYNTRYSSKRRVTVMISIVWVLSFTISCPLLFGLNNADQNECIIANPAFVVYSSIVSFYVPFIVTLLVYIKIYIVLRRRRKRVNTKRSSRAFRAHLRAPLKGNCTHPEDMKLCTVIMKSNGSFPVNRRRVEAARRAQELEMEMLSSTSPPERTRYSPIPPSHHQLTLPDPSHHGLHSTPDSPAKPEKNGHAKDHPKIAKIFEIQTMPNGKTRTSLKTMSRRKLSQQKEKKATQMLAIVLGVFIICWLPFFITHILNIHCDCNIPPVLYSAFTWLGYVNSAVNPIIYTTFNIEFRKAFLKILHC

One may read the pKi as the negative decadic logarithm of the Ki, by convention in mol/L. Regarding `COc1ccc2[nH]cc(CCN(C)C)c2c1` [3-(2-DIMETHYLAMINOETHYL)-5-METHOXYINDOLE], the negative-log Ki (pKi) in assay [1], in [2], in assay [3], in assay [4], in assay [5] and in assay [6] was under 5.00 in each case. Besides, the negative logarithm of the Ki (pKi) in assay [7] is 5.72; in assay [8], 5.45.
With `C[C@@H]1C[C@H](C)N1C(=O)C1C=C2c3cccc4[nH]cc(c34)C[C@H]2N(C)C1` (stereo partly drawn) [cis-2a], the negative logarithm of the Ki (pKi) was under 5.00 in assay [1]; under 5.00 in assay [9]; 6.28 in assay [6]; under 5.00 in assay [10]; under 5.00 in assay [11]; under 5.00 in assay [12]. In addition, the pKi is 7.31 in assay [8]; 6.30 in [13]; 8.43 in [14]; 7.79 in assay [15]; 7.89 in assay [16]; 7.36 in assay [17].
Turning to `CC[C@H]1C[C@@H]2C[C@H]3c4[nH]c5ccc(OC)cc5c4CCN(C2)[C@@H]13`, the pKi in assay [18] was under 5.00; in assay [1], 5.70; in assay [4], under 5.00; in assay [9] it was 5.36; in assay [10] it was 5.70; in assay [11] it was under 5.00. Also, the negative-log Ki (pKi) in [12], in assay [8], in assay [13] and in assay [14] was under 5.00 each time.
Take `COc1ccc2[nH]c(C)c(CCN(C)C)c2c1` [[2-(5-Methoxy-2-methyl-1H-indol-3-yl)-ethyl]-dimethyl-amine (C2H2O)]: the pKi in assay [1], in [5], in assay [9], in assay [10], in [12] and in [8] was under 5.00 throughout. Also, the pKi in assay [19], in assay [13] and in assay [14] was under 5.00 each time.
On to `COC(=O)[C@@H]1C[C@H](OC(C)=O)C(=O)[C@H]2[C@@]1(C)CC[C@H]1C(=O)O[C@H](c3ccoc3)C[C@]21C` [2S,4aR,6a(R,7R,9S,10aS,10bR)-9-(acetyloxy)-2-(furan-3-yl)dodecahydro-6a,10b-dimethyl-4,10-dioxo-2H-naphtho[2,1-c]pyran-7-carboxylic acid methyl ester], for which the pKi in [18], in assay [1], in assay [3], in [4], in [5] and in assay [6] was under 5.00 throughout. The pKi in assay [8], in assay [13], in assay [14], in assay [15], in assay [16] and in assay [17] was under 5.00 throughout.
Consider `CN(C)CCc1c[nH]c2ccccc12` [2-(1H-indol-3-yl)-N,N-dimethylethanamine], for which the negative-log Ki (pKi) is 7.03 in [18]; under 5.00 in assay [1]; under 5.00 in assay [2]; under 5.00 in [3]; under 5.00 in assay [4]; under 5.00 in assay [5]. The pKi in assay [6] was 5.76; in assay [11], under 5.00; in assay [7] it was 5.81; in [8], under 5.00; in assay [19], under 5.00; in assay [14], under 5.00. For the same compound, the results for the pKi in assay [15] and in [16] were 6.21 and 6.31, respectively.
Regarding `C[C@@H]1C[C@@H](C)N1C(=O)C1C=C2c3cccc4[nH]cc(c34)C[C@H]2N(C)C1` (some centres undefined) [rr-2b], the pKi is 7.74 in assay [18]; under 5.00 in [1]; under 5.00 in [9]; 5.29 in assay [6]; under 5.00 in [10]; under 5.00 in [11]. Moreover, the negative logarithm of the Ki (pKi) in [12] was under 5.00; in assay [8], 6.58; in assay [13] it was 5.84; in [14], 8.70; in assay [15], 7.90; in [16], 7.22. Further, the negative-log Ki (pKi) in assay [17] was 6.51.
Take `CCN(CC)C(=O)[C@@H]1C=C2c3cccc4[nH]cc(c34)C[C@H]2N(C)C1` [[N-methyl-3H]LSD]: the pKi is 8.11 in assay [18]; under 5.00 in [1]; under 5.00 in assay [9]; 5.95 in assay [6]; under 5.00 in [10]; under 5.00 in assay [11]. Further, the figures for the pKi in assay [12], in assay [8] and in assay [14] were under 5.00, 6.96 and 8.41, respectively.
For `CNC(C)Cc1ccc2c(c1)OCO2` (centres undefined) [mdma], the negative-log Ki (pKi) in assay [18] is under 5.00; in assay [1], under 5.00; in assay [2], under 5.00; in assay [3], under 5.00; in assay [4] it was under 5.00; in assay [5] it was 5.20. For the same compound, the pKi in [9] was under 5.00; in assay [6], under 5.00; in assay [10], under 5.00; in [11] it was under 5.00; in [7], 5.60; in assay [8], under 5.00. Also, the pKi in assay [13] is under 5.00; in assay [14], under 5.00; in assay [15], under 5.00; in assay [16] it was under 5.00; in assay [17], 6.30.
In the case of `CCc1[nH]c2ccc(OC)cc2c1CCN(C)C` [2-ethyl-5-methoxy-N,N-dimethyltryptamine], the pKi in [1], in assay [5], in [9], in assay [10], in assay [12] and in [8] was under 5.00 each time. Moreover, the pKi in assay [19], in assay [13] and in assay [14] was under 5.00 throughout.
As to `CN(C)CCc1c[nH]c2cccc(O)c12` [4-hydroxy-N,N-dimethyltryptamine], the pKi in [1], in [2], in assay [3], in assay [4], in assay [9] and in assay [6] was under 5.00 throughout. The pKi in [11], in [12], in [8], in assay [19] and in [13] was under 5.00 throughout.
